Earlier results on one molecule are cited in patent US20090023784A1, “USE OF DEFERIPRONE AND METHODS TO TREAT AND/OR PREVENT FRIEDREICH ATAXIA RESULTING FROM INTRACELLULAR MISHANDLING OF IRON” (priority 2006, published 2009).

The series concerns intracellular iron pools of macrophages, hepatocytes, and cardiomyocyte cell lines. As to conditions: living cells, fluorescence probes; cited from earlier work.

On to `CC(=O)N(O)CCCCCNC(=O)CCC(=O)N(O)CCCCCNC(=O)CCC(=O)N(O)CCCCCN` [desferrioxamine], for which the “access to intracellular iron pools / chelation” value is given as “slow”.
